Reference: ChEMBL document CHEMBL4052640 (Eur J Med Chem, 2017)

Columns and labels:
Human respirovirus 3 = assay: microbe, parasite or virus in culture; details: Human respirovirus 3, Vero
Yellow fever virus = assay: microbe, parasite or virus in culture; details: Vero
[1] = system: Respiratory syncytial virus; type: functional, cell-based; details: human respiratory syncytial virus, HeLa
cells [2] = details: MDCK
Influenza A virus [3] = type: functional, cell-based; details: A/Ned/378/05(H1N1), MDCK
MDCK = assay: Cytotoxicity against dog MDCK cells assessed as reduction in cell viability measured after 5 to 6 days by MTS assay; type: cell-based, Canis lupus familiaris
Coxsackievirus B4 [4] = type: functional, cell-based; details: Enterovirus B, HeLa
Sindbis virus = type: functional; details: Vero
[5] = system: Vesicular stomatitis virus; assay: microbe, parasite or virus in culture; details: HeLa
Influenza B virus = assay: microbe, parasite or virus in culture; details: B/Ned/537/05, MDCK
[6] = system: Mammalian orthoreovirus 1; type: functional; details: Mammalian orthoreovirus 1, Vero
Influenza A virus [7] = type: functional, cell-based; details: A/Ned/378/05(H1N1), MDCK; remark: listed apart in the source
cells [8] = details: Influenza A virus, MDCK
cells [9] = details: Influenza A virus, MDCK; remark: listed apart in the source
Punta Toro virus = type: functional; details: Vero
Coxsackievirus B4 [10] = type: functional; details: Enterovirus B, Vero
[11] = Cytotoxicity against human HeLa cells assessed as alterations in cell morphology by microscopic analysis; type: cell-based
[12] = system: Respiratory syncytial virus; assay: microbe, parasite or virus in culture; details: human respiratory syncytial virus, HeLa

In the case of `NC1=NC2(CCCC2)N(c2ccc(Cl)cc2)C(N)=N1`, the EC50 (Human respirovirus 3) is reported as over 100 µM, the EC50 (Yellow fever virus) is reported as over 100 µM and the EC50 [1] is reported as 8 µM. The EC50 (cells [2]) was 6.1 µM, the EC50 (Influenza A virus [3]) was over 100 µM and the CC50 (MDCK) was over 100 µM. The EC50 (Coxsackievirus B4 [4]) was over 100 µM, the EC50 (Sindbis virus) was over 100 µM and the EC50 [5] was over 100 µM. For the same molecule, the EC50 (Influenza B virus) was 18 µM, the EC50 [6] was over 100 µM and the EC50 (Influenza A virus [7]) was over 100 µM. It also gave an EC50 (cells [8]) of over 83 µM, an EC50 (cells [9]) of over 83 µM and an EC50 (Punta Toro virus) of over 100 µM. The EC50 (Coxsackievirus B4 [10]) was over 100 µM.

With `CC1(C)N=C(N)N=C(N)N1c1ccc(C(=O)O)cc1` the EC50 (Human respirovirus 3) was over 100 µM, the EC50 (Yellow fever virus) was over 100 µM and the EC50 [1] was over 100 µM. For the same molecule, the EC50 (cells [2]) was over 100 µM, the EC50 (Influenza A virus [3]) was over 100 µM and the CC50 (MDCK) was over 100 µM. The EC50 (Coxsackievirus B4 [4]) was over 100 µM, the EC50 (Sindbis virus) was over 100 µM and the EC50 [5] was over 100 µM. For the same molecule, the EC50 (Influenza B virus) was over 100 µM, the EC50 [6] was over 100 µM and the EC50 (Influenza A virus [7]) was over 100 µM. For the same molecule, the EC50 (cells [8]) was over 83 µM, the EC50 (cells [9]) was over 83 µM and the EC50 (Punta Toro virus) was over 100 µM. For the same molecule, the EC50 (Coxsackievirus B4 [10]) was over 100 µM.

For `CCC1(C)N=C(N)N=C(N)N1c1ccc(Cl)cc1` (stereo not drawn), the EC50 (Human respirovirus 3) was over 100 µM, the EC50 (Yellow fever virus) was over 100 µM and the EC50 [1] was 5.4 µM. It also gave an EC50 (cells [2]) of 2.2 µM, an EC50 (Influenza A virus [3]) of over 100 µM and a CC50 (MDCK) of over 100 µM. The EC50 (Coxsackievirus B4 [4]) was over 100 µM, the EC50 (Sindbis virus) was over 100 µM and the EC50 [5] was over 100 µM. For the same molecule, the EC50 (Influenza B virus) was 8.3 µM, the EC50 [6] was over 100 µM and the EC50 (Influenza A virus [7]) was over 100 µM. For the same molecule, the EC50 (cells [8]) was over 83 µM, the EC50 (cells [9]) was over 83 µM and the EC50 (Punta Toro virus) was over 100 µM. For the same molecule, the EC50 (Coxsackievirus B4 [10]) was over 100 µM.

Molecule `NC1=NC2(CCCCC2)N(c2ccc(Cl)cc2)C(N)=N1` has an EC50 (Human respirovirus 3) of over 100 µM, an EC50 (Yellow fever virus) of over 100 µM and an EC50 [1] of over 100 µM. For the same molecule, the EC50 (cells [2]) was 36 µM, the EC50 (Influenza A virus [3]) was over 100 µM and the CC50 (MDCK) was over 100 µM. The EC50 (Coxsackievirus B4 [4]) was over 100 µM, the EC50 (Sindbis virus) was over 100 µM and the EC50 [5] was over 100 µM. For the same molecule, the EC50 (Influenza B virus) was over 83 µM, the EC50 [6] was over 100 µM and the EC50 (Influenza A virus [7]) was over 100 µM. For the same molecule, the EC50 (cells [8]) was 10 µM, the EC50 (cells [9]) was 49 µM and the EC50 (Punta Toro virus) was over 100 µM. The EC50 (Coxsackievirus B4 [10]) was over 100 µM.

`CCOC(=O)c1ccc(N2C(N)=NC(N)=NC2(C)C)cc1` showed an EC50 (Human respirovirus 3) of over 100 µM, an EC50 (Yellow fever virus) of over 100 µM and an EC50 [1] of over 100 µM. For the same molecule, the EC50 (cells [2]) was over 100 µM, the EC50 (Influenza A virus [3]) was over 100 µM and the CC50 (MDCK) was over 100 µM. For the same molecule, the EC50 (Coxsackievirus B4 [4]) was over 100 µM, the EC50 (Sindbis virus) was over 100 µM and the EC50 [5] was over 100 µM. The EC50 (Influenza B virus) was over 100 µM, the EC50 [6] was over 100 µM and the EC50 (Influenza A virus [7]) was over 100 µM. It also gave an EC50 (cells [8]) of over 83 µM, an EC50 (cells [9]) of over 83 µM and an EC50 (Punta Toro virus) of over 100 µM. For the same molecule, the EC50 (Coxsackievirus B4 [10]) was over 100 µM.

Work on `CCCC1N=C(N)N=C(N)N1c1ccc(Cl)cc1` (stereo not drawn) yielded an EC50 (Human respirovirus 3) of over 100 µM, an EC50 (Yellow fever virus) of over 100 µM and an EC50 [1] of over 100 µM. The EC50 (cells [2]) was over 100 µM, the EC50 (Influenza A virus [3]) was over 100 µM and the CC50 (MDCK) was over 100 µM. For the same molecule, the EC50 (Coxsackievirus B4 [4]) was over 100 µM, the EC50 (Sindbis virus) was over 100 µM and the EC50 [5] was over 100 µM. It also gave an EC50 (Influenza B virus) of 29 µM, an EC50 [6] of over 100 µM and an EC50 (Influenza A virus [7]) of over 100 µM. For the same molecule, the EC50 (cells [8]) was over 83 µM, the EC50 (cells [9]) was over 83 µM and the EC50 (Punta Toro virus) was over 100 µM. For the same molecule, the EC50 (Coxsackievirus B4 [10]) was over 100 µM.

Molecule `CC1(C)N=C(N)N=C(Nc2ccc(Cl)cc2)N1` has an EC50 (Human respirovirus 3) of over 100 µM, an EC50 (Yellow fever virus) of over 100 µM and an EC50 [1] of over 100 µM. For the same molecule, the EC50 (cells [2]) was over 100 µM, the EC50 (Influenza A virus [3]) was over 100 µM and the CC50 (MDCK) was over 100 µM. For the same molecule, the EC50 (Coxsackievirus B4 [4]) was over 100 µM, the EC50 (Sindbis virus) was over 100 µM and the EC50 [5] was over 100 µM. The EC50 (Influenza B virus) was over 100 µM, the EC50 [6] was over 100 µM and the EC50 (Influenza A virus [7]) was over 100 µM. For the same molecule, the EC50 (cells [8]) was over 83 µM, the EC50 (cells [9]) was over 83 µM and the EC50 (Punta Toro virus) was over 100 µM. For the same molecule, the EC50 (Coxsackievirus B4 [10]) was over 100 µM.

In the case of `N=C(N)NC(=N)Nc1ccc(Cl)cc1` [4-CHLOROPHENYLBIGUANIDE], the EC50 (Human respirovirus 3) is reported as over 100 µM, the EC50 (Yellow fever virus) is reported as over 100 µM and the EC50 [1] is reported as over 100 µM. For the same molecule, the EC50 (cells [2]) was over 100 µM, the EC50 (Influenza A virus [3]) was over 100 µM and the CC50 (MDCK) was over 100 µM. For the same molecule, the EC50 (Coxsackievirus B4 [4]) was over 100 µM, the EC50 (Sindbis virus) was over 100 µM and the EC50 [5] was over 100 µM. The EC50 (Influenza B virus) was over 100 µM, the EC50 [6] was over 100 µM and the EC50 (Influenza A virus [7]) was over 100 µM. It also gave an EC50 (cells [8]) of over 83 µM, an EC50 (cells [9]) of over 83 µM and an EC50 (Punta Toro virus) of over 100 µM. For the same molecule, the EC50 (Coxsackievirus B4 [10]) was over 100 µM.

With `NC1=NC(c2ccccc2)N(c2ccc(Cl)cc2)C(N)=N1` (stereo not drawn) the EC50 (Human respirovirus 3) was over 100 µM, the EC50 (Yellow fever virus) was over 100 µM and the EC50 [1] was over 100 µM. It also gave an EC50 (cells [2]) of over 100 µM, an EC50 (Influenza A virus [3]) of over 100 µM and a CC50 (MDCK) of over 100 µM. For the same molecule, the EC50 (Coxsackievirus B4 [4]) was over 100 µM, the EC50 (Sindbis virus) was over 100 µM and the EC50 [5] was over 100 µM. For the same molecule, the EC50 (Influenza B virus) was over 100 µM, the EC50 [6] was over 100 µM and the EC50 (Influenza A virus [7]) was over 100 µM. The EC50 (cells [8]) was over 83 µM, the EC50 (cells [9]) was over 83 µM and the EC50 (Punta Toro virus) was over 100 µM. It also gave an EC50 (Coxsackievirus B4 [10]) of over 100 µM.

For `CC1(C)N=C(N)N=C(N)N1c1cccc(C(F)(F)F)c1`, the EC50 (Human respirovirus 3) was over 100 µM, the EC50 (Yellow fever virus) was over 100 µM and the CC50 (MDCK) was 6.1 µM. It also gave an EC50 (Coxsackievirus B4 [4]) of over 100 µM, an EC50 (Sindbis virus) of over 100 µM and an EC50 [5] of over 100 µM. It also gave an MCC [11] of 20 µM, an EC50 [12] of 0.03 µM and an EC50 (Coxsackievirus B4 [10]) of over 100 µM.
